Source: patent publication US8049038B2, “Carnitine conjugates of adamantanamines derivatives as dual prodrugs for various uses” (priority 2006, dated 2011)

Columns and labels:
[1] = Toxicity observed in mice after subcutaneous administration in the NMDA test; format: in vivo; conditions: male NIH-Swiss mice; 120 mg/kg SC; n=8 mice/group
Procedure: (§1) Memantine (30 mg/kg; SC) was used as a positive control in each experiment and there were n=8 mice/group for all conditions.

NMDA receptors = assay: NMDA-induced seizure activity and lethality in mice (in vivo test for NMDA antagonist activity); conditions: male NIH-Swiss mice, 30 min before NMDA 200 mg/kg IP
From the text: Compounds 3-(3,5-dimethyladamantan-1-ylcarbamoyl)-(R)-2-hydroxypropyl)-trimethyl ammonium chloride [Formula 1(B); R1 and R2 are CH3; n=0], and 3-benzyloxycarbonyl-(R)-2-{[(3,5-dimethyladamantan-1-ylcarbamoyl)-propionyloxy]propyl}-trimethyl ammonium bromide [Formula 4(B); R1 and R2 are CH3; n=0; R3, R4, R5, R6 are hydrogen; and R^2 is a benzyl group] were selected for in vivo testing in mice, since both are potential prodrugs for memantine and L-carnitine through in vivo enzymatic hydrolysis of either an amide or ester linkages. Since memantine has N-methyl-D-aspartate (NMDA) antagonist properties, it was assumed that the above compounds would share these properties and therefore a test was utilized that identifies NMDA antagonist activity in vivo. Briefly, this test measures seizure activity and lethality in mice produced by the administration of NMDA […] which block these parameters in a dose-dependent manner (see Leander, J. D., et al., Brain Res. 448, 115-120 (1988), N-methyl-D-aspartate acid-induced lethality in mice: selective antagonism by phencyclidine-like drugs; Parsons, C. G., et al., Neuropharmacol. 34, 1239-1258 (1995).
as §1

Row | SMILES | toxicity [1] | activity in NMDA-induced seizure/lethality test (NMDA receptors; 60 mg/kg SC) | time to lethality (NMDA receptors; 120 mg/kg SC, observed 30 min) | time to produce clonic seizures (NMDA receptors; 90 mg/kg SC, observed 30 min) | time to produce death (NMDA receptors; 90 mg/kg SC, observed 30 min)
1 | CC12CC3CC(C)(C1)CC(NC(=O)C[C@@H](O)C[N+](C)(C)C)(C3)C2.[Cl-] [[3-(3,5-Dimethyl-adamantan-1-ylcarbamoyl)-(R)-2-hydroxy-propyl]-trimethylammonium chloride] | tremors, lethality in n=3 mice | inactive | slightly increased |  | 
2 | CC12CC3CC(C)(C1)CC(NC(=O)CCC(=O)O[C@H](CC(=O)OCc1ccccc1)C[N+](C)(C)C)(C3)C2.[Br-] [{3-Benzyloxycarbonyl-(R)-2-[3-(3,5-Dimethyladamantan-1-ylcarbamoyl)-propionyloxy]-propyl}-trimethylammonium bromide] |  |  |  | markedly increased | markedly increased
